Results as given in US12187773B2, “Modified GIP peptide analogues” (Antag Therapeutics ApS, priority 2018, dated 2025).
*1 amine or outer side, *2 acyl side, *3 side chain or, on linkers, in order; H or OH if unused. Where a SMILES comes first, the peptide text is derived from it. Side-chain parts run from the residue outwards. The star is where a group is joined. C18 diacid = O=C(O)CCCCCCCCCCCCCCCCC(=O)*; γGlu = O=C(O)[C@H](CCC(=O)[*:2])N[*:1]; AEEA = NCCOCCOCC(=O)O

Columns and labels:
Type in all cases: cell-based
[1] = molecular target: T1, GLP2 receptor (GLP2R) (Homo sapiens, UniProt O95838); experiment: cAMP assay - selectivity, antagonism at GLP2 receptor; details: Table 3B; COS-7 cells; agonist GLP2
T1 construct: expressed in transfected cells; host or cells: COS-7 (transient)
T1 sequence (O95838 1-553): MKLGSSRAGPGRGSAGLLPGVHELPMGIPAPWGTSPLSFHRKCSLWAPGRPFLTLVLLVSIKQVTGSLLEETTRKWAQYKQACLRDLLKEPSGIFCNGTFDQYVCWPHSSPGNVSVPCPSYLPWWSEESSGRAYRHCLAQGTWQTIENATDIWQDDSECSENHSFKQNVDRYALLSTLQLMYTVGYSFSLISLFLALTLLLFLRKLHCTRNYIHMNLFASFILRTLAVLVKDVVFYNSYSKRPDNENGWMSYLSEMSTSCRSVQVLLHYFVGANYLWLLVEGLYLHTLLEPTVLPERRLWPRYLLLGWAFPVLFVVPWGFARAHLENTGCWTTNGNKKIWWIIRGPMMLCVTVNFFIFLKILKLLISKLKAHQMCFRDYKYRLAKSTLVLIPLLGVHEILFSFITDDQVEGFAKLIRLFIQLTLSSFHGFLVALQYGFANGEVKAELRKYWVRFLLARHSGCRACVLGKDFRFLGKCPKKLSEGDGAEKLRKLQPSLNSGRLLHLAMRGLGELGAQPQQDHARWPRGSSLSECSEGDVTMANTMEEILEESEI
Experimental: (§1) Transient transfected COS-7 cells expressing the either of the GLP1 receptor (GLP1R), GLP2 receptor (GLP2R), glucagon receptor (GcgR) or secretin receptor (SCTR) were seeded in white 96-well plates with a density of 3.5*10^4/well. The day after, the cells were washed twice with Hepes buffered saline (HBS) buffer and incubated with HBS and 1 mM 3-isobutyl-1-methylxanthine (IBMX) for 30 min at 37° C. To test for agonistic properties, ligands were added and incubated for 30 min at 37° C. In order to test for antagonistic properties, the cells were preincubated with the antagonists for 10 min prior to the addition the natural agonist for the expressed receptor (GLP1 for GLP1R expressing cells, GLP2 for GLP2R expressing cells, glucagon for the GcgR and secretin for the SCTR) and subsequent incubated for 20 additional min. […] The HitHunter™ cAMP XS assay (DiscoveRx) was carried out according to the manufacturer's instructions.

[2] = molecular target: T2, GLP1 receptor (GLP1R) (Homo sapiens, UniProt P43220); experiment: cAMP assay - selectivity, antagonism at GLP1 receptor; details: Table 3A; COS-7 cells; agonist GLP1 at 50-80% of maximal cAMP
T2 construct: expressed in transfected cells; host or cells: COS-7 (transient)

[3] = molecular target: T3, glucagon receptor (GcgR) (Homo sapiens, UniProt P47871); experiment: cAMP assay - selectivity, antagonism at glucagon receptor; details: Table 3A; COS-7 cells; agonist glucagon at 50-80% of maximal cAMP
T3 construct: expressed in transfected cells; host or cells: COS-7 (transient)
Experimental: as §1

[4] = molecular target: T4, human GIP receptor (Homo sapiens, UniProt P48546); experiment: cAMP accumulation, antagonism (DiscoveRx HitHunter cAMP XS assay); set-up: host or cells: COS-7 (transient, calcium phosphate; pCMV-Script vector)
T4 sequence (P48546 22-466): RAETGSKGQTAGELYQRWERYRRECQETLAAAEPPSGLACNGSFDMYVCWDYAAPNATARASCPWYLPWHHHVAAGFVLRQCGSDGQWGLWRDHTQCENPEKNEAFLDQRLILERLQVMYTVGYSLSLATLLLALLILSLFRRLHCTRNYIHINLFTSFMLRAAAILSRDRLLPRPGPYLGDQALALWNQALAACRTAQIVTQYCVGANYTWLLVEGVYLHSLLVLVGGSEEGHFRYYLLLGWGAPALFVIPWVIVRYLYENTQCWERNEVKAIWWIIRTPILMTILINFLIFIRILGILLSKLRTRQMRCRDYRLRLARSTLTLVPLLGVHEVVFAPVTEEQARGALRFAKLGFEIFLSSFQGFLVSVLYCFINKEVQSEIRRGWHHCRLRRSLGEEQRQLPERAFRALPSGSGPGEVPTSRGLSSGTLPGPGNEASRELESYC
In short: (§2)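 cAMP accumulation measured by HitHunter cAMP XS in COS-7 cells transiently expressing human GIP receptor, after 30 min in HBS with 1 mM IBMX at 37 °C. Antagonists preincubated 10 min before GIP giving 50-80% of maximum, then 20 min more; agonist mode used 30 min ligand exposure.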

[5] = molecular target: T4, human GIP receptor; experiment: cAMP agonism (CisBio cAMP Dynamic 2 HTRF assay); details: HEK293, read-out: cAMP agonism, % Efficacy, Table 1C, HEK-293 cells
Experimental: To test for agonistic properties at the GIP receptor, compounds were diluted and added to cells as described above and incubated for 30 min at 37° C. The resulting increase in intracellular cAMP was determined using the CisBio cAMP Dynamic 2 HTRF Assay Kit as described above.

[6] = molecular target: T4, human GIP receptor; experiment: cAMP accumulation, agonism (DiscoveRx HitHunter cAMP XS assay); set-up: host or cells: COS-7 (transient, calcium phosphate; pCMV-Script vector); details: Table 1B; DiscoveRx; COS-7 cells
In short: as §2

T2 sequence (P43220 24-463, species assumed): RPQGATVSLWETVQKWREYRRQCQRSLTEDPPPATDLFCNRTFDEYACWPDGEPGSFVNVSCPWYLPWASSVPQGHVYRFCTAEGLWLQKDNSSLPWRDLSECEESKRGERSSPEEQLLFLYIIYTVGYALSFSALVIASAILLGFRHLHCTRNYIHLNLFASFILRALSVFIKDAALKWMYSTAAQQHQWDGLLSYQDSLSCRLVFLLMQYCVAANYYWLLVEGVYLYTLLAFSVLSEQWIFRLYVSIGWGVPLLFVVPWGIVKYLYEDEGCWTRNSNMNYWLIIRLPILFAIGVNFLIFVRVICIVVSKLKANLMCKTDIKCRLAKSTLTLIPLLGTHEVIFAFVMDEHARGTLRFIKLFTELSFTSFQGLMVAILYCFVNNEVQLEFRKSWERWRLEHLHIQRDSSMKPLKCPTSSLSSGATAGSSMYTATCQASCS
T3 sequence (P47871 26-477, species assumed): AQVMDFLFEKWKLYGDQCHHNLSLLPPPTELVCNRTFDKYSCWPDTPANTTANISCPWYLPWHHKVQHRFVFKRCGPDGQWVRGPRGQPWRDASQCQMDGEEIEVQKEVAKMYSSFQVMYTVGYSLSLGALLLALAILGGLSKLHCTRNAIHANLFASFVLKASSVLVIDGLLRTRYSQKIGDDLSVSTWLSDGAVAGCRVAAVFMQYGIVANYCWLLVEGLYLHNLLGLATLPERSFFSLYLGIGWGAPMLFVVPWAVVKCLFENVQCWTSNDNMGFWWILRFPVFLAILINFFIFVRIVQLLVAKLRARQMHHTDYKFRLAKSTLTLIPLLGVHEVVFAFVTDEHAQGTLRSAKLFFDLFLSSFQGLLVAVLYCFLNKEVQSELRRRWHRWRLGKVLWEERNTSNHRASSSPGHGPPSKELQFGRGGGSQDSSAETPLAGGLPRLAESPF

## CC[C@H](C)[C@H](NC(=O)[C@H](CO)NC(=O)[C@H](Cc1ccc(O)cc1)NC(=O)[C@H](CC(=O)O)NC(=O)[C@H](CO)NC(=O)[C@@H](NC(=O)[C@H](Cc1ccccc1)NC(=O)[C@@H](NC(=O)CNC(=O)[C@@H](N)CO)[C@@H](C)O)[C@@H](C)CC)C(=O)N[C@@H](C)C(=O)N[C@@H](CCSC)C(=O)N[C@@H](CC(=O)O)C(=O)N[C@@H](CCCNC(=N)N)C(=O)N[C@H](C(=O)N[C@@H](CCCCNC(=O)COCCOCCNC(=O)COCCOCCNC(=O)COCCOCCNC(=O)CC[C@H](NC(=O)CCCCCCCCCCCCCCCCC(=O)O)C(=O)O)C(=O)N[C@@H](CCC(N)=O)C(=O)N[C@@H](CCC(N)=O)C(=O)N[C@@H](CC(=O)O)C(=O)N[C@@H](Cc1ccccc1)C(=O)N[C@H](C(=O)N[C@@H](CC(N)=O)C(=O)N[C@@H](Cc1c[nH]c2ccccc12)C(=O)N[C@@H](CC(C)C)C(=O)N[C@@H](CC(C)C)C(=O)N[C@@H](C)C(=O)N[C@@H](CCC(N)=O)C(=O)N[C@@H](CCCNC(=N)N)C(N)=O)C(C)C)[C@@H](C)CC [AT385] (H-SGTFISDYSIAMDRIK([AEEA-AEEA-AEEA-γGlu-C18 diacid])QQDFVNWLLAQR-NH2; N-terminus assumed)
[1]
  GLP-2R, Antagonism: No antagonism
[2]
  GLP-1R, Antagonism, nM: No antagonism
[3]
  Glucagon R, Antagonism, nM: No antagonism
[4]; IC50-value (GIPR antagonism), Examples 1 and 2, values of Tables 1B and 2
  IC50: 4 nM
[4]; Table 1B, DiscoveRx, COS-7 cells, % inhibition of Emax
  cAMP antagonism, % inhib: 100%
[4]; Table 3A/3B, DiscoveRx, COS-7 cells
  GIPR, Antagonism, % inhib: 100.0%
[4]; cAMP antagonism, nM (IC50), Table 1B, DiscoveRx, transiently transfected COS-7 cells
  IC50: 4 nM
[5]
  Emax: 3%
[6]
  cAMP agonism, Emax: No Agonism
